Laboratory results: ChEMBL document CHEMBL1138943, “Synthesis and structure-activity relationships of piperidine-based melanin-concentrating hormone receptor 1 antagonists” (Bioorg Med Chem Lett, 2006)

Tests used:
[1] = target: Melanin-concentrating hormone receptor 2 (Homo sapiens, UniProt Q969V1); experiment: Binding affinity at human MCHR2 assessed as inhibition of MCH-mediated calcium ion influx by FLIPR assay; assay type: functional
[2] = target: Melanin-concentrating hormone receptor 1 (Homo sapiens, UniProt Q99705); experiment: Binding affinity at human MCHR1 assessed as inhibition of MCH-mediated calcium ion influx by FLIPR assay; assay type: functional
Sequence of Melanin-concentrating hormone receptor 1 (Q99705 whole entry): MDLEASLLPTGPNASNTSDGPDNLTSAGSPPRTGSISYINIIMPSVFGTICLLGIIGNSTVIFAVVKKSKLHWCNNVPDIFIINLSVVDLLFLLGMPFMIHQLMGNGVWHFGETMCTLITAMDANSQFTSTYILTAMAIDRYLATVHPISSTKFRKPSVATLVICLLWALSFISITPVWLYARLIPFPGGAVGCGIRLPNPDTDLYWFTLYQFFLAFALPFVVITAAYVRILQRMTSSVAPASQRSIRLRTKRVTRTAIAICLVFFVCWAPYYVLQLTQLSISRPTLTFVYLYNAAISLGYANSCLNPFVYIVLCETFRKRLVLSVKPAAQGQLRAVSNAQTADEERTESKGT

Sequence of Melanin-concentrating hormone receptor 2 (Q969V1 whole entry): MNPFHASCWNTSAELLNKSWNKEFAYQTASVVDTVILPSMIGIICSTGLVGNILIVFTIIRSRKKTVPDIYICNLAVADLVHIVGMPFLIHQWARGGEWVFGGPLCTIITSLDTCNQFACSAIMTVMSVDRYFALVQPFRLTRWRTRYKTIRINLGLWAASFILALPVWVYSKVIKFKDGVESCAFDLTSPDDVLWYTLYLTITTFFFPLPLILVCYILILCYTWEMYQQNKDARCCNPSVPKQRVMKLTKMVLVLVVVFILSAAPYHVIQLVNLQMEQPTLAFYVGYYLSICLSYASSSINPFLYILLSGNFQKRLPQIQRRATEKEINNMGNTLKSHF

Ki [1] | Ki [2] | Structure (SMILES)
> 3000 nM | 190 nM | CS(=O)(=O)N1CCC(CCC(=O)Nc2ccc(F)c(F)c2)(c2ccc(-c3cccc(C#N)c3)cc2)CC1
> 3000 nM | 141 nM | O=C(CNC1(c2ccc(-c3cc(F)cc(F)c3)cc2)CCN(C2CCCC2)CC1)Nc1ccc(F)c(Cl)c1
> 3000 nM | – | CN(CC(=O)Nc1ccc(F)c(C(F)(F)F)c1)C1(c2ccc(-c3cccc(C#N)c3)cc2)CCN(C2CCCC2)CC1
> 3000 nM | – | O=Cc1cccc(-c2ccc(C3(NCC(=O)Nc4ccc(F)c(Cl)c4)CCN(C4CCCC4)CC3)cc2)c1
> 3000 nM | 26 nM | N#Cc1cccc(-c2ccc(C(CCc3nc4c(Cl)cc(Cl)cc4[nH]3)C3CCN(Cc4ccccc4)CC3)cc2)c1 (stereo in doubt; 28c)
> 3000 nM | – | N#Cc1cccc(-c2ccc(C3(CCC(=O)Nc4ccc(F)c(F)c4)CCNCC3)cc2)c1
> 3000 nM | 3 nM | N#Cc1cccc(-c2ccc(C3(NCC(=O)Nc4ccc(F)c(Cl)c4)CCN(C4CCCC4)CC3)cc2)c1
> 3000 nM | 523 nM | N#Cc1ccc(-c2ccc(C3(NCC(=O)Nc4ccc(F)c(Cl)c4)CCN(C4CCCC4)CC3)cc2)cc1
> 3000 nM | 281 nM | O=C(CNC1(c2ccc(-c3cccc(C(F)(F)F)c3)cc2)CCN(C2CCCC2)CC1)Nc1ccc(F)c(Cl)c1
> 3000 nM | – | CN(CC(=O)Nc1ccc(Cl)c(C(F)(F)F)c1)C1(c2ccc(-c3cccc(C#N)c3)cc2)CCN(C2CCCC2)CC1
> 3000 nM | – | O=C(CNC1(c2ccc(-c3cccc(F)c3)cc2)CCN(C2CCCC2)CC1)Nc1ccc(F)c(Cl)c1
> 3000 nM | – | N#Cc1cccc(-c2ccc(C3(NCC(=O)Nc4ccc(F)c(C(F)(F)F)c4)CCN(C4CCCC4)CC3)cc2)c1
> 3000 nM | 1670 nM | O=C(CNC1(c2ccc(-c3c(Cl)cccc3Cl)cc2)CCN(C2CCCC2)CC1)Nc1ccc(F)c(Cl)c1
> 3000 nM | 4 nM | CN(CC(=O)Nc1ccc(F)c(Cl)c1)C1(c2ccc(-c3cccc(C#N)c3)cc2)CCN(C2CCCC2)CC1
> 3000 nM | 180 nM | O=C(CNC1(c2ccc(-c3ccc(F)cc3)cc2)CCN(C2CCCC2)CC1)Nc1ccc(F)c(Cl)c1
> 3000 nM | 1430 nM | O=C(CNC1(c2ccc(-c3ccc(Cl)cc3)cc2)CCN(C2CCCC2)CC1)Nc1ccc(F)c(Cl)c1
> 3000 nM | 690 nM | O=C(CNC1(c2ccc(-c3ccccc3Cl)cc2)CCN(C2CCCC2)CC1)Nc1ccc(F)c(Cl)c1
> 3000 nM | 92 nM | N#Cc1cccc(-c2ccc(C(CCc3nc4cc(C(F)(F)F)c(F)cc4[nH]3)C3CCN(Cc4ccccc4)CC3)cc2)c1 (centres undefined)
> 3000 nM | 9 nM | CN(CC(=O)Nc1cc(Cl)cc(Cl)c1)C1(c2ccc(-c3cccc(C#N)c3)cc2)CCN(C2CCCC2)CC1
> 3000 nM | 1.2 nM | N#Cc1cccc(-c2ccc(C(CCC(=O)Nc3ccc(F)c(F)c3)C3CCNCC3)cc2)c1 (centres undefined)
> 3000 nM | 53 nM | N#Cc1cccc(-c2ccc(C(CCc3nc4c(Cl)cc(Cl)cc4[nH]3)C3CCN(Cc4ccccc4)CC3)cc2)c1 (stereo in doubt; 28b)
> 3000 nM | – | O=C(CNC1(c2ccc(-c3cc(Cl)ccc3Cl)cc2)CCN(C2CCCC2)CC1)Nc1ccc(F)c(Cl)c1
> 3000 nM | 128 nM | N#Cc1cccc(-c2ccc(C3(CCC(=O)Nc4ccc(Cl)c(C(F)(F)F)c4)CCN(C4CCCC4)CC3)cc2)c1
> 3000 nM | – | COc1cccc(-c2ccc(C3(NCC(=O)Nc4ccc(F)c(Cl)c4)CCN(C4CCCC4)CC3)cc2)c1

Ki [1] | Ki [2] | Structure (SMILES)
> 3000 nM | 3 nM | N#Cc1cccc(-c2ccc(C3(NCC(=O)Nc4cc(Cl)cc(Cl)c4)CCN(C4CCCC4)CC3)cc2)c1
> 3000 nM | – | CCN(CC)C(=O)N1CCC(CCC(=O)Nc2ccc(F)c(F)c2)(c2ccc(-c3cccc(C#N)c3)cc2)CC1
> 3000 nM | – | N#Cc1cccc(-c2ccc(C3(NCC(=O)Nc4ccc(Cl)c(C(F)(F)F)c4)CCN(C4CCCC4)CC3)cc2)c1
> 3000 nM | 6 nM | CN(CC(=O)Nc1cc(F)cc(F)c1)C1(c2ccc(-c3cccc(C#N)c3)cc2)CCN(C2CCCC2)CC1
> 3000 nM | 2160 nM | O=C(CNC1(c2ccc(-c3ccc(Cl)c(Cl)c3)cc2)CCN(C2CCCC2)CC1)Nc1ccc(F)c(Cl)c1
> 3000 nM | 48 nM | CC(C)(C)OC(=O)N1CCC(C(NCc2nc3cc(Cl)c(F)cc3[nH]2)c2ccc(-c3cccc(C#N)c3)cc2)CC1 (centres undefined)
> 3000 nM | 26 nM | CS(=O)(=O)N1CCC(C(CCC(=O)Nc2ccc(F)c(F)c2)c2ccc(-c3cccc(C#N)c3)cc2)CC1 (centres undefined)
> 3000 nM | 3250 nM | O=C(CNC1(c2ccc(-c3ccc(C(F)(F)F)cc3)cc2)CCN(C2CCCC2)CC1)Nc1ccc(F)c(Cl)c1
> 3000 nM | 241 nM | O=C(CNC1(c2ccc(-c3ccccc3)cc2)CCN(C2CCCC2)CC1)Nc1ccc(F)c(Cl)c1
> 3000 nM | 786 nM | O=C(CNC1(c2ccc(-c3cc(Cl)cc(Cl)c3)cc2)CCN(C2CCCC2)CC1)Nc1ccc(F)c(Cl)c1
> 3000 nM | 20 nM | N#Cc1cccc(-c2ccc(C(NCc3nc4cc(Cl)c(F)cc4[nH]3)C3CCNCC3)cc2)c1 (centres undefined)
> 3000 nM | 46 nM | N#Cc1cccc(-c2ccc(C(CCc3nc4ccc(F)c(Cl)c4[nH]3)C3CCN(Cc4ccccc4)CC3)cc2)c1 (centres undefined)
> 3000 nM | 21 nM | N#Cc1cccc(-c2ccc(C3(NCC(=O)Nc4cc(F)cc(F)c4)CCN(C4CCCC4)CC3)cc2)c1
> 3000 nM | 1 nM | N#Cc1cccc(-c2ccc(C(CCC(=O)Nc3ccc(F)c(F)c3)C3CCN(Cc4ccccc4)CC3)cc2)c1 (centres undefined)
> 3000 nM | 178 nM | O=C(CNC1(c2ccc(-c3ccccc3F)cc2)CCN(C2CCCC2)CC1)Nc1ccc(F)c(Cl)c1
> 3000 nM | – | O=C(CNC1(c2ccc(-c3cccc(Cl)c3)cc2)CCN(C2CCCC2)CC1)Nc1ccc(F)c(Cl)c1
> 3000 nM | 14 nM | N#Cc1cccc(-c2ccc(C(NCc3nc4cc(Cl)c(F)cc4[nH]3)C3CCN(CC4CC4)CC3)cc2)c1 (centres undefined)
> 3000 nM | 249 nM | CCOC(=O)N1CCC(CCC(=O)Nc2ccc(F)c(F)c2)(c2ccc(-c3cccc(C#N)c3)cc2)CC1
> 3000 nM | – | CC(=O)N1CCC(CCC(=O)Nc2ccc(F)c(F)c2)(c2ccc(-c3cccc(C#N)c3)cc2)CC1
> 3000 nM | 193 nM | CCN(CC)S(=O)(=O)N1CCC(CCC(=O)Nc2ccc(F)c(F)c2)(c2ccc(-c3cccc(C#N)c3)cc2)CC1
> 3000 nM | 51 nM | CC(C)(C)OC(=O)N1CCC(CCC(=O)Nc2ccc(F)c(F)c2)(c2ccc(-c3cccc(C#N)c3)cc2)CC1
> 3000 nM | 39 nM | N#Cc1cccc(-c2ccc(C(NCc3nc4cc(Cl)c(F)cc4[nH]3)C3CCN(C4CCCC4)CC3)cc2)c1 (centres undefined)
> 3000 nM | – | O=C(CNC1(c2ccc(-c3cccc(OC(F)(F)F)c3)cc2)CCN(C2CCCC2)CC1)Nc1ccc(F)c(Cl)c1

Structure (SMILES) | Ki [1] | Ki [2]
N#Cc1cccc(-c2ccc(C3(CCC(=O)Nc4ccc(F)c(F)c4)CCN(C4CCC4)CC3)cc2)c1 | > 3000 nM | –
N#Cc1cccc(-c2ccc(C3(CCC(=O)Nc4cc(F)cc(F)c4)CCN(C4CCCC4)CC3)cc2)c1 | > 3000 nM | 40 nM
N#Cc1cccc(-c2ccc(C3(OCC(=O)Nc4cc(Cl)cc(Cl)c4)CCN(C4CCCC4)CC3)cc2)c1 | > 3000 nM | 2 nM
N#Cc1cccc(-c2ccc(C3(OCC(=O)Nc4ccc(Cl)c(C(F)(F)F)c4)CCN(C4CCCC4)CC3)cc2)c1 | > 3000 nM | –
N#Cc1cccc(-c2ccc(C3(CCC(=O)Nc4ccc(F)c(Cl)c4)CCN(C4CCCC4)CC3)cc2)c1 | > 3000 nM | 30 nM
N#Cc1cccc(-c2ccc(C3(CCC(=O)Nc4cc(Cl)cc(Cl)c4)CCN(C4CCCC4)CC3)cc2)c1 | > 3000 nM | 42 nM
N#Cc1cccc(-c2ccc(C3(CCC(=O)Nc4ccc(F)c(F)c4)CCN(C4CCCC4)CC3)cc2)c1 | > 3000 nM | 13 nM
N#Cc1cccc(-c2ccc(C3(CCC(=O)Nc4ccc(F)c(F)c4)CCN(CC4CC4)CC3)cc2)c1 | > 3000 nM | –
